Laboratory results as given in patent publication US20220153766A1, “CONDENSED TRICYCLIC COMPOUND USED AS KINASE INHIBITOR” (Hangzhou Innogate Pharma Co., Ltd., priority 2019, published 2022).

Assays:
EGFR (T790M/L858R/C797S) = EGFR (T790M/L858R/C797S) (Homo sapiens, UniProt P00533, C797S/L858R/T790M); test: EGFR (T790M/L858R/C797S) kinase activity inhibition, Caliper mobility shift assay; format: biochemical; details: kinase 2.5 nM, ATP 40 μM
Description: The basic method is the same as ALK activity test method 2. The test concentration of the compound starts at 2 μM, and is diluted 5 folds into 6 (7 for individual compounds) concentration points. […] Add 30 μL of stop solution containing EDTA to stop the kinase reaction. Use Caliper EZ Reader to read the conversion rate. Inhibition rate %=(Average positive control conversion rate %−Sample conversion rate %/(Average positive control conversion rate %−Average negative control conversion rate %). Among them: negative control wells represent the conversion rate readings without enzyme activity; positive control wells represent the conversion rate readings of wells without compound inhibition. Take the log value of the concentration as the X-axis, and the percentage inhibition rate on the Y-axis. Log (inhibitor) vs. response—Variable slope of analysis software GraphPad Prism 5 was used to fit the curve to obtain the IC50 value of each compound on the enzyme activity. Calculation formula: Y=Bottom+(Top−Bottom)/(1+10^((Log IC50−X)*HillSlope)).

MAP4K1 (HPK1) = MAP4K1 (HPK1) (Homo sapiens, UniProt Q92918); test: MAP4K1 (HPK1) kinase activity inhibition, Caliper mobility shift assay; format: biochemical; details: kinase 1.25 nM, ATP 10.1 μM
Sequence of MAP4K1 (HPK1) (Q92918 whole entry): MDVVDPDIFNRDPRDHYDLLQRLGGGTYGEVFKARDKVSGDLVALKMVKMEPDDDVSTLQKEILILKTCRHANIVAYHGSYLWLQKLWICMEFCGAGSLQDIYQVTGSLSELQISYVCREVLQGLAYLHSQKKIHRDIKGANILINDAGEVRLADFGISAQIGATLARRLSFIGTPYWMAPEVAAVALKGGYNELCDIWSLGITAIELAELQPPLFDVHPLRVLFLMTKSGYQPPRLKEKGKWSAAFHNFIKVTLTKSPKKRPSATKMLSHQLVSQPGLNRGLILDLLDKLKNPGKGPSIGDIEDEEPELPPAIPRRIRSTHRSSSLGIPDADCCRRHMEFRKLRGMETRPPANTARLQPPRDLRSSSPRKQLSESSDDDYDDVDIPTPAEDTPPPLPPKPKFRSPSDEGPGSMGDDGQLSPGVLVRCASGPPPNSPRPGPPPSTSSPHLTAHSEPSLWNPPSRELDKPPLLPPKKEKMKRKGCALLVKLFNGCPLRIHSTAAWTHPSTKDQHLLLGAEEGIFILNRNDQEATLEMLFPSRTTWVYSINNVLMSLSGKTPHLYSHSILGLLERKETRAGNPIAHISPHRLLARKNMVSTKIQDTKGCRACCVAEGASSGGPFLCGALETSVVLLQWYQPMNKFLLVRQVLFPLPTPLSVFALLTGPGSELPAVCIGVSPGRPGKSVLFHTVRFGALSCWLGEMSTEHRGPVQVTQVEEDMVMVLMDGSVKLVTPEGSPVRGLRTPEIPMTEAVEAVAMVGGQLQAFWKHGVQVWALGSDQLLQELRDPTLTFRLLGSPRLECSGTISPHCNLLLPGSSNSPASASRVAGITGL
Outline: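 HPK1 kinase at 1.25 nM final preincubated 10 min at room temperature with compound (5 points, 5-fold dilutions from 500 nM), then reacted 120 min with 10.1 μM ATP and 3 μM substrate peptide No. 25. EDTA stop; mobility-shift conversion read, IC50 from variable-slope four-parameter fit of % inhibition.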

[1] = molecular target: T1, Ba/F3_EGFR del19/T790M/C797S cells (Homo sapiens, UniProt P00533, T790M/C797S, cells depend on it, form not given); test: Ba/F3_EGFR (del19-T790M-C797S) cell proliferation inhibition, CTG, method 1; format: cell-based; details: 700 cells/well, 72 h, read-out: Ba/F3_EGFR (del19-T790M-C797S) cell proliferation inhibition (IC50 value) Method 1
T1 sequence (P00533 with tags, fused parts or gaps DEL746-750/T790M/C797S, form open): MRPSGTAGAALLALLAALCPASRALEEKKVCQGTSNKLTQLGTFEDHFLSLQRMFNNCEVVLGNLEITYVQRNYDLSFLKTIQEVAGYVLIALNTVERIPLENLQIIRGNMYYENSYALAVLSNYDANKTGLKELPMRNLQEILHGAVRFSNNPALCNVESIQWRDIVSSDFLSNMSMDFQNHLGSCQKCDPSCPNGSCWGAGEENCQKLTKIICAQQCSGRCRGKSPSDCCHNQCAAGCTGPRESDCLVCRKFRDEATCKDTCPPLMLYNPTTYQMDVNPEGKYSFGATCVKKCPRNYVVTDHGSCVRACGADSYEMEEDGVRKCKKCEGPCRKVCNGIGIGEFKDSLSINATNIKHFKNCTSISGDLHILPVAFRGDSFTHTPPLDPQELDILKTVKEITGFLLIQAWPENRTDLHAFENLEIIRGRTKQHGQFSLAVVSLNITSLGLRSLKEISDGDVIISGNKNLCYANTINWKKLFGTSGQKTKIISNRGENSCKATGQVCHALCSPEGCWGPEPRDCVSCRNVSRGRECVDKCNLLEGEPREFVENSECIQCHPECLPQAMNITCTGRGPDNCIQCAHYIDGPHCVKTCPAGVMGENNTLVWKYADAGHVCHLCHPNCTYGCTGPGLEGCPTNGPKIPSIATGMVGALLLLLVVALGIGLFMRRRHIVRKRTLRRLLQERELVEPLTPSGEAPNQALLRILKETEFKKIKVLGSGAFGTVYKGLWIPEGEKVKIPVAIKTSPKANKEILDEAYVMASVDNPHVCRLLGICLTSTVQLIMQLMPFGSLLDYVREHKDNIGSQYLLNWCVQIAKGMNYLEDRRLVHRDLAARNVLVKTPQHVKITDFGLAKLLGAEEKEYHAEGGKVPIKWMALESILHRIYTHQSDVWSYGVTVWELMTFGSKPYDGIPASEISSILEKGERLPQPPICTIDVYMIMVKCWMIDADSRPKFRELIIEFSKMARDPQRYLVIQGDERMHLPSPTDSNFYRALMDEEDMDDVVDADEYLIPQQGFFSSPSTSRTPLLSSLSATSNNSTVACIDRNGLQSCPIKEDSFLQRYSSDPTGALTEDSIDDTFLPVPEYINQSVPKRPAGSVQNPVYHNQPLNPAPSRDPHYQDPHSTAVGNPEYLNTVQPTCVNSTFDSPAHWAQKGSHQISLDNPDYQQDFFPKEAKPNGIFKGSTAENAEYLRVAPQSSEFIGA

[2] = molecular target: T1, Ba/F3_EGFR del19/T790M/C797S cells; test: Ba/F3_EGFR (del19-T790M-C797S) cell proliferation inhibition, CTG, method 2; format: cell-based; details: 2000 cells/well, 72 h, read-out: Ba/F3_EGFR (del19-T790M-C797S) cell proliferation inhibition (IC50 value) Method 2
Description: Take a small amount of cells and count them with ViCell. 2) Adjust the cell density, inoculate the cells in a 384-well plate at 2000/well, and incubate in a 37° C., 5% CO2 incubator for 4 hours. 3) Set up the program of Tecan HP D300, add the compound to the well plate. The maximum initial concentration of the compound is 1-4 μM, 3 folds dilution, 9 concentrations, and the DMSO content in each well is unified to 0.2%.
CTG method detection: 1) Take out the CTG reagent and cell plate and equilibrate at room temperature for 30 min, add 25 μL CTG to each well, shake at medium speed for 2 min, centrifuge at 1000 rpm for 1 minutes, and stand still at room temperature for 10 minutes. 2) Envision instrument reads the chemiluminescence signal value.
Data analysis: IC50 results are analyzed by IDBS's XL-fit 5.0 software.

Sequence of EGFR (T790M/L858R/C797S) (P00533 25-1210 T790M/C797S/L858R): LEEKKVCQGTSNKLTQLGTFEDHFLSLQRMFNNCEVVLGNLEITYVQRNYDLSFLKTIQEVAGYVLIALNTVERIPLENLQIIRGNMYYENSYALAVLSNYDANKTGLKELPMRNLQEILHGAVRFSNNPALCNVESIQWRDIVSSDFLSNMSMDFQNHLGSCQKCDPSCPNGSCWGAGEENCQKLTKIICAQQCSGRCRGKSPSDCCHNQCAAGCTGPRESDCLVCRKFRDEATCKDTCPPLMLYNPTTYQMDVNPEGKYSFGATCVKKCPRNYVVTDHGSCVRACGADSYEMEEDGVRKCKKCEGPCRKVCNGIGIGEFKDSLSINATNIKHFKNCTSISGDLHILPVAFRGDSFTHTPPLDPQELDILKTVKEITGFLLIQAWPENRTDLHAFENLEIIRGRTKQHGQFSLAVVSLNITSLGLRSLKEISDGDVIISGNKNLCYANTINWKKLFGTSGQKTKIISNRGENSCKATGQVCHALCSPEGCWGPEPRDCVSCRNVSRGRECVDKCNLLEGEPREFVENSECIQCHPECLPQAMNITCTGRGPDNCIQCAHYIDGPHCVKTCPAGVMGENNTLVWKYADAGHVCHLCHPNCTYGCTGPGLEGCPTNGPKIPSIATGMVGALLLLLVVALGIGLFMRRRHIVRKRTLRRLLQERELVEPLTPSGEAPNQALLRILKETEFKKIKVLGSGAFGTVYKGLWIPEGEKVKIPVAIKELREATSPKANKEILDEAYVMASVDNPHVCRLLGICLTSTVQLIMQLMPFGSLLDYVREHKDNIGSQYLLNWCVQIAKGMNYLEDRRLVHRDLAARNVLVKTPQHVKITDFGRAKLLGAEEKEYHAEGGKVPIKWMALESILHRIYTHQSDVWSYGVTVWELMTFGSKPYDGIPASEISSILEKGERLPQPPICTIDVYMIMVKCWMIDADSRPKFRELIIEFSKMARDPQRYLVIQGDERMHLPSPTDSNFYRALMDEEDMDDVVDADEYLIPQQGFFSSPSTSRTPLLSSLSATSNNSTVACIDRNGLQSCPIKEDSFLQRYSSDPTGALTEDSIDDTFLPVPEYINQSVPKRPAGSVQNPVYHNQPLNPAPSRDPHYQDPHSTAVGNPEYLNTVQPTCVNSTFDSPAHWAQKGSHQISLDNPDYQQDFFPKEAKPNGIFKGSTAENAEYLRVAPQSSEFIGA

- IC50 (EGFR (T790M/L858R/C797S)): < 0.003 µM
- IC50 (MAP4K1 (HPK1)): ≤ 0.001 µM
- GI50 [1]: < 0.02 µM
- GI50 [2]: < 0.02 µM
Structure (SMILES): Cc1cc(Nc2ncc(Cl)c(Nc3ccccc3P(C)(C)=O)n2)cc2c1N1CCN(C3CCN(C)CC3)C[C@@H]1CO2 [Compound 27R]
